Measured values reported in PubChem BioAssay AID2060882 (Molecular Pharmacology Branch, DTP, NCI, 2025).

Test system: 898857-211-R-J1-PDC complex spheroids, growth % test/control
Experiment: Anticancer human tumor 898857-211-R-J1-PDC patient-derived melanoma cell line growth inhibition [RAS]
Conditions: for IC50: curve of first compound; for viability, T/C: stronger effect = lower value
In short: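 Agents were tested in combination matrices in half-log decrements from a top concentration at or near clinical Cmax (10 microM if undetermined). Targets were multi-cell spheroids of tumour lines plus HUVEC and MSC stromal cells.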

[1] = second compound 0.00316 µM, first compound 0.00316 µM
[2] = second compound 0.00316 µM, first compound 0.01 µM
[3] = second compound 0.00316 µM, first compound 0.0316 µM
[4] = second compound 0.00316 µM, first compound 0.1 µM
[5] = second compound 0.00316 µM, first compound 0.316 µM
[6] = second compound 0.00316 µM, first compound 1 µM
[7] = second compound 0.01 µM, first compound 0.00316 µM
[8] = second compound 0.01 µM, first compound 0.01 µM
[9] = second compound 0.01 µM, first compound 0.0316 µM
[10] = second compound 0.01 µM, first compound 0.1 µM
[11] = second compound 0.01 µM, first compound 0.316 µM
[12] = second compound 0.01 µM, first compound 1 µM
[13] = second compound 0.0316 µM, first compound 0.00316 µM
[14] = second compound 0.0316 µM, first compound 0.01 µM
[15] = second compound 0.0316 µM, first compound 0.0316 µM
[16] = second compound 0.0316 µM, first compound 0.1 µM
[17] = second compound 0.0316 µM, first compound 0.316 µM
[18] = second compound 0.0316 µM, first compound 1 µM
[19] = second compound 0.1 µM, first compound 0.00316 µM
[20] = second compound 0.1 µM, first compound 0.01 µM
[21] = second compound 0.1 µM, first compound 0.0316 µM
[22] = second compound 0.1 µM, first compound 0.1 µM
[23] = second compound 0.1 µM, first compound 0.316 µM
[24] = second compound 0.1 µM, first compound 1 µM
[25] = second compound 0.316 µM, first compound 0.00316 µM
[26] = second compound 0.316 µM, first compound 0.01 µM
[27] = second compound 0.316 µM, first compound 0.0316 µM
[28] = second compound 0.316 µM, first compound 0.1 µM
[29] = second compound 0.316 µM, first compound 0.316 µM
[30] = second compound 0.316 µM, first compound 1 µM
[31] = second compound 1 µM, first compound 0.00316 µM
[32] = second compound 1 µM, first compound 0.01 µM
[33] = second compound 1 µM, first compound 0.0316 µM
[34] = second compound 1 µM, first compound 0.1 µM
[35] = second compound 1 µM, first compound 0.316 µM
[36] = second compound 1 µM, first compound 1 µM
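Further: spheroids exposed to compound for seven days before readout.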
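Wherever viability, T/C is given: 100% = DMSO vehicle control wells.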

C=CC(=O)Nc1cc(Nc2nccc(-c3cn(C)c4ccccc34)n2)c(OC)cc1N(C)CCN(C)C + C=CC(=O)N1CCN(c2nc(OCC3CCCN3C)nc3c(F)c(-c4nc(N)cc(C)c4C(F)(F)F)c(Cl)cc23)C(C)C1
IC50 (second compound 0.00316 µM): 940 nM | IC50 (second compound 0.01 µM): > 1000 nM | IC50 (second compound 0.0316 µM): > 1000 nM | IC50 (second compound 0.1 µM): 962 nM | IC50 (second compound 0.316 µM): > 1000 nM | IC50 (second compound 1 µM): 870 nM | viability, T/C [1]: 98.9% | viability, T/C [2]: 98.9% | viability, T/C [3]: 116% | viability, T/C [4]: 101% | viability, T/C [5]: 92.6% | viability, T/C [6]: 47.5% | viability, T/C [7]: 102% | viability, T/C [8]: 105% | viability, T/C [9]: 93% | viability, T/C [10]: 100% | viability, T/C [11]: 96.5% | viability, T/C [12]: 54.4% | viability, T/C [13]: 104% | viability, T/C [14]: 103% | viability, T/C [15]: 104% | viability, T/C [16]: 107% | viability, T/C [17]: 93.6% | viability, T/C [18]: 58.4% | viability, T/C [19]: 105% | viability, T/C [20]: 105% | viability, T/C [21]: 117% | viability, T/C [22]: 106% | viability, T/C [23]: 98% | viability, T/C [24]: 48.2% | viability, T/C [25]: 114% | viability, T/C [26]: 112% | viability, T/C [27]: 116% | viability, T/C [28]: 108% | viability, T/C [29]: 93.8% | viability, T/C [30]: 53.7% | viability, T/C [31]: 118% | viability, T/C [32]: 120% | viability, T/C [33]: 124% | viability, T/C [34]: 114% | viability, T/C [35]: 97.7% | viability, T/C [36]: 43.4%

CC(Nc1ccc2c(c1)OCCn1cc(N3C(=O)OCC3C(F)F)nc1-2)C(N)=O (stereo unspecified) + C=CC(=O)N1CCN(c2nc(OCC3CCCN3C)nc3c(F)c(-c4nc(N)cc(C)c4C(F)(F)F)c(Cl)cc23)C(C)C1
IC50 (second compound 0.00316 µM): > 10000 nM | IC50 (second compound 0.01 µM): > 10000 nM | IC50 (second compound 0.0316 µM): > 10000 nM | IC50 (second compound 0.1 µM): > 10000 nM | IC50 (second compound 0.316 µM): > 10000 nM | IC50 (second compound 1 µM): > 10000 nM | viability, T/C [3]: 106% | viability, T/C [4]: 91.2% | viability, T/C [5]: 98.7% | viability, T/C [6]: 93.9% | viability, T/C (second compound 0.00316 µM, first compound 3.16 µM): 94.8% | viability, T/C (second compound 0.00316 µM, first compound 10 µM): 72.8% | viability, T/C [9]: 94.7% | viability, T/C [10]: 103% | viability, T/C [11]: 93.9% | viability, T/C [12]: 87.6% | viability, T/C (second compound 0.01 µM, first compound 3.16 µM): 95.6% | viability, T/C (second compound 0.01 µM, first compound 10 µM): 71.4% | viability, T/C [15]: 108% | viability, T/C [16]: 103% | viability, T/C [17]: 98.7% | viability, T/C [18]: 91.9% | viability, T/C (second compound 0.0316 µM, first compound 3.16 µM): 81.8% | viability, T/C (second compound 0.0316 µM, first compound 10 µM): 75.7% | viability, T/C [21]: 99.8% | viability, T/C [22]: 105% | viability, T/C [23]: 107% | viability, T/C [24]: 99.1% | viability, T/C (second compound 0.1 µM, first compound 3.16 µM): 87.9% | viability, T/C (second compound 0.1 µM, first compound 10 µM): 74.5% | viability, T/C [27]: 118% | viability, T/C [28]: 120% | viability, T/C [29]: 108% | viability, T/C [30]: 97% | viability, T/C (second compound 0.316 µM, first compound 3.16 µM): 94.4% | viability, T/C (second compound 0.316 µM, first compound 10 µM): 70.1% | viability, T/C [33]: 113% | viability, T/C [34]: 124% | viability, T/C [35]: 102% | viability, T/C [36]: 111% | viability, T/C (second compound 1 µM, first compound 3.16 µM): 90.1% | viability, T/C (second compound 1 µM, first compound 10 µM): 71.4%

O=C(c1ccc(F)c(F)c1Nc1ccc(I)cc1F)N1CC(O)([C@@H]2CCCCN2)C1 + C=CC(=O)N1CCN(c2nc(OCC3CCCN3C)nc3c(F)c(-c4nc(N)cc(C)c4C(F)(F)F)c(Cl)cc23)C(C)C1
IC50 (second compound 0.00316 µM): 5.18 nM | IC50 (second compound 0.01 µM): 3.43 nM | IC50 (second compound 0.0316 µM): 4.61 nM | IC50 (second compound 0.1 µM): 5.75 nM | IC50 (second compound 0.316 µM): 6.85 nM | IC50 (second compound 1 µM): 8.71 nM | viability, T/C [1]: 60.9% | viability, T/C [2]: 33.6% | viability, T/C [3]: 28.4% | viability, T/C [4]: 21.8% | viability, T/C [5]: 18.9% | viability, T/C [6]: 16.4% | viability, T/C [7]: 50.9% | viability, T/C [8]: 38.3% | viability, T/C [9]: 26.4% | viability, T/C [10]: 19.6% | viability, T/C [11]: 15.8% | viability, T/C [12]: 16% | viability, T/C [13]: 56.3% | viability, T/C [14]: 38% | viability, T/C [15]: 23.6% | viability, T/C [16]: 23.6% | viability, T/C [17]: 19.1% | viability, T/C [18]: 15.3% | viability, T/C [19]: 60.6% | viability, T/C [20]: 39.7% | viability, T/C [21]: 28% | viability, T/C [22]: 21.5% | viability, T/C [23]: 17.6% | viability, T/C [24]: 14% | viability, T/C [25]: 58.1% | viability, T/C [26]: 46.9% | viability, T/C [27]: 33.4% | viability, T/C [28]: 25.4% | viability, T/C [29]: 19.1% | viability, T/C [30]: 14.4% | viability, T/C [31]: 73.2% | viability, T/C [32]: 40.8% | viability, T/C [33]: 38.6% | viability, T/C [34]: 23.5% | viability, T/C [35]: 18.1% | viability, T/C [36]: 14.5%
